These results are taken from the Kinase Knowledgebase extract (Sharma et al. 2016).

In the assay the target is MAPK14 (human) (UniProt Q16539). Kind of assay: Inhibition of LPS Stimulated TNF Production by U937 Cells. The note with it: for inhibition: concentration not given here.
Chain of MAPK14 (human) (Q16539 whole entry, looked up): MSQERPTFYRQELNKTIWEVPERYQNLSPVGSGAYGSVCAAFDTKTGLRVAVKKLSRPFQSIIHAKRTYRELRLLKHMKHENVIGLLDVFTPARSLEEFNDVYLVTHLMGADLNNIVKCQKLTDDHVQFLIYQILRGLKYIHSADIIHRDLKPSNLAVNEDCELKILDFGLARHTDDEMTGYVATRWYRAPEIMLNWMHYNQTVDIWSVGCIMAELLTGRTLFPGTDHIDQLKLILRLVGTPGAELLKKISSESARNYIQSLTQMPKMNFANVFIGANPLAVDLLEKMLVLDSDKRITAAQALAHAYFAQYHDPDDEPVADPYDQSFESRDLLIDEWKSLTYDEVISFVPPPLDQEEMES

What is called IC50 is the midpoint of a concentration-inhibition curve. `Cn1cc(-c2ccnc(F)c2)c(-c2ccc(F)c(F)c2)n1` gave an IC50 of 1.28 µM.

As usually defined, the inhibition is the relative decrease from the control value, in per cent. Low values mean a weak effect, high ones a strong effect. In turn, `C[C@H](NC(=O)c1cc(C(F)(F)F)ccc1F)c1[nH]nc(-c2ccc(F)cc2)c1-c1ccncc1` yielded an inhibition of 32%.

`Cc1onc(-c2c(F)cccc2Cl)c1C(=O)NCc1[nH]nc(-c2ccc(F)cc2)c1-c1ccncc1` displayed an IC50 above 1 µM.

In the case of `O=S(=O)(c1ccccc1)N1CCC(c2[nH]nc(-c3ccc(F)cc3)c2-c2ccncc2)CC1`, the inhibition was 21%.

For `C[C@@H](NC(=O)c1cccs1)c1[nH]nc(-c2ccc(F)cc2)c1-c1ccncc1`, the inhibition was 70%.

Compound `O=C(NCCCc1[nH]nc(-c2ccc(F)cc2)c1-c1ccncc1)NCCCN1CCCC1=O` gave an IC50 above 1 µM.

With `COc1ccc(C(=O)NCc2[nH]nc(-c3ccc(F)cc3)c2-c2ccncc2)cc1OC`, the inhibition was found to be 22%.

Regarding `O=S(=O)(NCCc1[nH]nc(-c2ccc(F)cc2)c1-c1ccncc1)c1cccc2cnccc12`, the inhibition was determined as 91%.

`C[C@@H](NS(=O)(=O)C[C@@]12CC[C@H](CC1=O)C2(C)C)c1[nH]nc(-c2ccc(F)cc2)c1-c1ccncc1` returned an inhibition of 61%.

Turning to `CC(=O)OC(C)(C)C(=O)N[C@H](Cc1ccccc1)c1[nH]nc(-c2ccc(F)cc2)c1-c1ccncc1`, the IC50 was above 1 µM.

The compound `O=C(N[C@H](Cc1ccccc1)c1[nH]nc(-c2ccc(F)cc2)c1-c1ccncc1)c1ccc(F)c(F)c1F` had an IC50 above 1 µM.

Take `CC(C)c1ccc(S(=O)(=O)N[C@H](C)c2[nH]nc(-c3ccc(F)cc3)c2-c2ccncc2)cc1`: the inhibition is 80%.

For `COc1ccc(Cl)cc1S(=O)(=O)N[C@H](C)c1[nH]nc(-c2ccc(F)cc2)c1-c1ccncc1`, the inhibition worked out at 87%.

For `O=C(NCc1[nH]nc(-c2ccc(F)cc2)c1-c1ccncc1)c1ccc(Cl)cc1Cl`, the inhibition turned out to be 20%.

Take `Fc1ccc(-c2n[nH]cc2-c2ccnc(-c3c[nH]nc3-c3ccc(F)cc3)c2)cc1`: the half-inhibitory concentration (IC50) was found to be 0.602 µM.

Turning to `C[C@@H](NC(=O)c1cccc(F)c1F)c1[nH]nc(-c2ccc(F)cc2)c1-c1ccncc1`, the inhibition came out at 64%.

In turn, `C[C@H](NS(=O)(=O)c1ccc(C(F)(F)F)cc1)c1[nH]nc(-c2ccc(F)cc2)c1-c1ccncc1` came in with an inhibition of 86%.

In turn, `C[C@H](NS(=O)(=O)c1cccc2c(N(C)C)cccc12)c1[nH]nc(-c2ccc(F)cc2)c1-c1ccncc1` had an inhibition of 68%.

`CCOC(=O)CCCC(=O)NCc1[nH]nc(-c2ccc(F)cc2)c1-c1ccncc1` registered an inhibition of 22%.

In the case of `CN(C(=O)N[C@H](Cc1ccccc1)c1[nH]nc(-c2ccc(F)cc2)c1-c1ccncc1)c1ccccc1`, the half-maximal inhibitory concentration (IC50) is above 1 µM.

`COc1ccc(CC(=O)NCc2[nH]nc(-c3ccc(F)cc3)c2-c2ccncc2)cc1` gave an IC50 of 8.24 µM.

As for `O=C(c1cccs1)N1CCC(c2[nH]nc(-c3ccc(F)cc3)c2-c2ccncc2)CC1`, the IC50 was 0.37 µM.

In the case of `CNC(=O)CC[C@H](NC(=O)c1ccncc1)c1[nH]nc(-c2ccc(F)cc2)c1-c1ccncc1`, the inhibition came to 8%.

Turning to `O=C(NCc1[nH]nc(-c2ccc(F)cc2)c1-c1ccncc1)c1cccc(OC(F)(F)F)c1`, the inhibition was determined as 22%.

In turn, `C[C@@H](NC(=O)c1c(F)cccc1C(F)(F)F)c1[nH]nc(-c2ccc(F)cc2)c1-c1ccncc1` showed an inhibition of 86%.

`CCCNC(=O)NCc1[nH]nc(-c2ccc(F)cc2)c1-c1ccncc1` returned an inhibition of 39%.

With `O=S(=O)(NCc1[nH]nc(-c2ccc(F)cc2)c1-c1ccncc1)c1ccc(-c2ccccn2)s1`, the inhibition worked out at 63%.

`COc1ccc(C)cc1S(=O)(=O)N[C@@H](C)c1[nH]nc(-c2ccc(F)cc2)c1-c1ccncc1`: the inhibition was determined as 76%.

Compound `Cc1ccc(S(=O)(=O)N[C@@H](Cc2ccccc2)C(=O)N[C@H](C)c2[nH]nc(-c3ccc(F)cc3)c2-c2ccncc2)cc1` gave an inhibition of 10%.

With `CCN(CC)CCn1cc(-c2ccncc2)c(-c2ccc(F)cc2)n1`, the IC50 was determined as 0.509 µM.

Compound `C[C@@H](NC(=O)C1CC1)c1[nH]nc(-c2ccc(F)cc2)c1-c1ccncc1` had an inhibition of 46%.

In turn, `COc1ccccc1C(=O)NCc1[nH]nc(-c2ccc(F)cc2)c1-c1ccncc1` registered a half-inhibitory concentration (IC50) of 4.47 µM. That is a single-digit micromolar value.

For `C[C@@H](NS(=O)(=O)c1cccc(Cl)c1Cl)c1[nH]nc(-c2ccc(F)cc2)c1-c1ccncc1`, the inhibition turned out to be 83%.

The compound `COc1cccc(C(=O)N[C@H](Cc2ccccc2)c2[nH]nc(-c3ccc(F)cc3)c2-c2ccncc2)c1` returned an inhibition of 38%.

For the compound `O=C(NCc1[nH]nc(-c2ccc(F)cc2)c1-c1ccncc1)C(c1ccccc1)c1ccccc1`, the inhibition was found to be 78%.

With `CSCCC(=O)NCc1[nH]nc(-c2ccc(F)cc2)c1-c1ccncc1`, the inhibition came out at 13%.

Regarding `CC1(C)[C@@H]2CC[C@]1(S(=O)(=O)NCCc1[nH]nc(-c3ccc(F)cc3)c1-c1ccncc1)C(=O)C2`, the inhibition was found to be 56%.

On to `O=S(=O)(c1ccc(F)c(F)c1)N1CCC(c2[nH]nc(-c3ccc(F)cc3)c2-c2ccncc2)CC1`, for which the IC50 is above 1 µM.

In turn, `CC(C)C(=O)N[C@H](C)c1[nH]nc(-c2ccc(F)cc2)c1-c1ccncc1` gave an inhibition of 40%.

The compound `Cn1cc(-c2ccncc2)c(-c2cccc(C(F)(F)F)c2)n1` gave a 50% inhibitory concentration (IC50) of 0.402 µM.

The compound `COc1ccc(NC(=O)N[C@@H](C)c2[nH]nc(-c3ccc(F)cc3)c2-c2ccncc2)c(OC)c1` showed an inhibition of 21%.

With `Cc1ccccc1S(=O)(=O)NCc1[nH]nc(-c2ccc(F)cc2)c1-c1ccncc1`, the inhibition came to 24%.

The compound `COc1ccc(CC(=O)N[C@H](Cc2ccccc2)c2[nH]nc(-c3ccc(F)cc3)c2-c2ccncc2)cc1` gave an IC50 above 1 µM.

With `CN(C)CCNC(=O)NCCCc1[nH]nc(-c2ccc(F)cc2)c1-c1ccncc1`, the inhibition worked out at 11%.

For the compound `Cc1cnccc1-c1cn(C)nc1-c1ccc(F)cc1`, the IC50 was 0.757 µM. In other words, the sub-micromolar range.

Turning to `O=S(=O)(N[C@H](Cc1ccccc1)c1[nH]nc(-c2ccc(F)cc2)c1-c1ccncc1)c1cccs1`, the inhibition worked out at 29%.

Regarding `Cc1ccccc1S(=O)(=O)N[C@H](C)c1[nH]nc(-c2ccc(F)cc2)c1-c1ccncc1`, the inhibition came out at 92%.

Regarding `O=C(O)c1ccccc1S(=O)(=O)NCCc1[nH]nc(-c2ccc(F)cc2)c1-c1ccncc1`, the inhibition was determined as 40%.

As to `C[C@H](NS(=O)(=O)c1ccccc1Br)c1[nH]nc(-c2ccc(F)cc2)c1-c1ccncc1`, the inhibition was found to be 81%.

With `CCNC(=O)N[C@@H](CCC(=O)NC)c1[nH]nc(-c2ccc(F)cc2)c1-c1ccncc1`, the IC50 is above 1 µM.

`O=C(c1ccccc1Cl)N1CCC(c2[nH]nc(-c3ccc(F)cc3)c2-c2ccncc2)CC1` showed an inhibition of 85%.

Take `Cc1cccc(Cl)c1S(=O)(=O)N[C@H](C)c1[nH]nc(-c2ccc(F)cc2)c1-c1ccncc1`: the inhibition turned out to be 77%.

Consider `CCNC(=O)N1CCC(c2[nH]nc(-c3ccc(F)cc3)c2-c2ccncc2)CC1`, for which the IC50 is 0.73 µM.

`O=C(NCc1[nH]nc(-c2ccc(F)cc2)c1-c1ccncc1)c1c(F)ccc(F)c1F` had an inhibition of 36%.

Compound `C[C@@H](NS(C)(=O)=O)c1[nH]nc(-c2ccc(F)cc2)c1-c1ccncc1` registered an IC50 of 0.44 µM. This lies in the sub-micromolar range.

As to `C[C@@H](NC(=O)N1CCCC1)c1[nH]nc(-c2ccc(F)cc2)c1-c1ccncc1`, the inhibition was 48%.

For `COc1ccc(S(=O)(=O)N[C@H](C)c2[nH]nc(-c3ccc(F)cc3)c2-c2ccncc2)cc1OC`, the inhibition is 25%.

`CCS(=O)(=O)NCc1[nH]nc(-c2ccc(F)cc2)c1-c1ccncc1` had an IC50 of 5 µM. That is a single-digit micromolar value.

Compound `CC(C)S(=O)(=O)N[C@H](C)c1[nH]nc(-c2ccc(F)cc2)c1-c1ccncc1` came in with an inhibition of 52%.

In turn, `C[C@H](NC(=O)c1ccccc1Br)c1[nH]nc(-c2ccc(F)cc2)c1-c1ccncc1` yielded an inhibition of 39%.

In turn, `Clc1ccc(-c2n[nH]cc2-c2ccnc(NCc3ccccn3)c2)cc1` displayed a half-maximal inhibitory concentration (IC50) of 0.166 µM.

Compound `C[C@H](NC(=O)c1ccc(Cl)cc1)c1[nH]nc(-c2ccc(F)cc2)c1-c1ccncc1` had an inhibition of 32%.

With `C[C@@H](NC(=O)c1cc(F)cc(C(F)(F)F)c1)c1[nH]nc(-c2ccc(F)cc2)c1-c1ccncc1`, the inhibition was 52%.

Take `Cn1cc(-c2ccnc(CCc3ccc(F)cc3)c2)c(-c2ccc(F)cc2)n1`: the IC50 was 0.327 µM.

On to `O=C(N[C@H](Cc1ccccc1)c1[nH]nc(-c2ccc(F)cc2)c1-c1ccncc1)[C@@H]1CCCN1`, for which the inhibition was 11%.

The compound `C[C@@H](NC(=O)c1ccc(F)cc1C(F)(F)F)c1[nH]nc(-c2ccc(F)cc2)c1-c1ccncc1` displayed an inhibition of 90%.

`O=C(NCCc1[nH]nc(-c2ccc(F)cc2)c1-c1ccncc1)c1cc(Cl)cc(Cl)c1` returned an IC50 above 1 µM.

For the compound `C[C@@H](NS(=O)(=O)c1ccc(F)cc1F)c1[nH]nc(-c2ccc(F)cc2)c1-c1ccncc1`, the inhibition was found to be 55%.

Consider `Cc1c(Cl)cccc1S(=O)(=O)N[C@@H](C)c1[nH]nc(-c2ccc(F)cc2)c1-c1ccncc1`, for which the inhibition is 54%.

`Cc1c(-c2ccncc2)c(-c2ccc(F)cc2)nn1CC(=O)NCCCN1CCN(C)CC1` displayed an inhibition of 30%.

Regarding `O=S(=O)(NCc1[nH]nc(-c2ccc(F)cc2)c1-c1ccncc1)c1ccc(F)cc1F`, the half-inhibitory concentration (IC50) stood at 2.17 µM.

In turn, `CCc1ccc(S(=O)(=O)N[C@@H](C)c2[nH]nc(-c3ccc(F)cc3)c2-c2ccncc2)cc1` had an inhibition of 92%.

For the compound `O=S(=O)(NCCCc1[nH]nc(-c2ccc(F)cc2)c1-c1ccncc1)c1cccc(C(F)(F)F)c1`, the inhibition amounted to 11%.

As to `C[C@H](NC(=O)N[C@@H](C)c1[nH]nc(-c2ccc(F)cc2)c1-c1ccncc1)c1ccccc1`, the inhibition was 29%.

In turn, `C[C@H](NC(=O)c1cc(F)ccc1F)c1[nH]nc(-c2ccc(F)cc2)c1-c1ccncc1` returned an inhibition of 44%.

Take `COC(=O)c1ccccc1S(=O)(=O)NCc1[nH]nc(-c2ccc(F)cc2)c1-c1ccncc1`: the half-inhibitory concentration (IC50) was determined as 4.85 µM.

For `O=C(NCc1[nH]nc(-c2ccc(F)cc2)c1-c1ccncc1)Nc1ccc(C(F)(F)F)cc1`, the inhibition turned out to be 10%.

`O=S(=O)(NCc1[nH]nc(-c2ccc(F)cc2)c1-c1ccncc1)c1cc(Cl)cc(Cl)c1O` displayed an inhibition of 6%.

In turn, `CNC(=O)CC[C@H](NC(=O)c1ccc(C)cc1)c1[nH]nc(-c2ccc(F)cc2)c1-c1ccncc1` showed an IC50 above 1 µM.

In the case of `COC(=O)CCCCCCC(=O)NCc1[nH]nc(-c2ccc(F)cc2)c1-c1ccncc1`, the inhibition was 9%.
